A word on the IC50: it is the concentration at which inhibition is half-maximal. A lower IC50 goes with inhibition by little substance.

The target in assay [1] is T1, IDO1 in Hela cancer cells (Homo sapiens, UniProt P14902).
T1 construct: endogenous in cells; host or cells: Hela cancer cells stimulated with human IFN-γ
The experiment in a line: IDO1 Cellular Assay (kynurenine production in IFN-γ stimulated Hela cancer cells). It counts as cell-based. The settings on record: human IFN-γ 50 ng/mL, 48 hours incubation, kynurenine at 490 nm. How it is done: Hela cancer cells (5×10^3 per well) with 85 μL DMEM medium containing 10% FBS were seeded in a 96-well plate and incubated at 95% humidity and 5% CO2 at 37° C. for 24 hours. human IFN-γ (10 μL, 50 ng/mL final concentration) and 5 μL serial dilutions of the test compounds were added into each well. The test compounds were dissolved in DMSO, and successively diluted with pH7.5 buffer (with final DMSO concentration of 0.25%) resulting in final concentrations of the test compounds ranging from 0 to 25 μM (0, 2.5, 7.5, 25, 75, 250, 750, 2500, 7500, & 25000 nM). After 48 hours of incubation, 70 uL of the supernatant per well was transferred to a new 96 well plate. Trichloroacetic acid (6.1 N, 8 μL) was mixed into each well and incubated at 50° C. for 30 min to hydrolyze N-formylkynurenine produced by IDO to kynurenine. The reaction mixture was then centrifuged for 10 min at 2500 RPM to remove sediments. 50 μL of the supernatant per well was transferred to another 96 well plate and mixed with 50 uL of 2% (w/v) p-dimethylaminobenzaldehyde in acetic acid. The yellow color derived from kynurenine was measured at 490 nm using a microplate reader. Percent inhibition of the test compounds was determined by measuring the decrease in kynurenine as compared to the control of DMSO vehicle, which was calculated by formula of (WC-WT)/WC, where WC is the mean absorbance of the control well minus blank well; WT is the mean absorbance of the test well minus the blank well. Data was analyzed by GraphPad Prism 5 and the IC50 values were obtained by non-linear regression.
(§1) The IC50 values of for Compounds disclosed are listed in Table 2, A′: ≤0.5 μM; B′: >0.5 μM and ≤1 μM; C′: >1.0 μM and ≤5 uM; and D′: >5 μM.

Assay [2] concerns the target T2, TDO2 in A172 cancer cells (Homo sapiens, UniProt P48775).
T2 construct: endogenous in cells; host or cells: A172 cancer cells
The experiment in a line: TDO2 Cellular Assay (kynurenine production in A172 cancer cells). It counts as cell-based. The settings on record: L-Trp 1 mM, 24 hours incubation, kynurenine at 490 nm. As to the method:
A172 cancer cells (3×10^4 per well) in 85 μL DMEM medium containing 10% FBS were seeded in a 96-well plate and incubated at 95% humidity and 5% CO2 at 37° C. for overnight. On the next day, L-Trp solution (10 μL, 1 mM final concentration) and serial dilutions of the test compounds and DMEM medium resulting in a total final volume of 100 μL each well. The test compounds were dissolved in DMSO and successively diluted with pH7.5 butter (with final DMSO concentration of 0.25%) resulting in final concentrations of the test compounds ranging from 0 to 25 μM (0, 2.5, 7.5, 25, 75, 250, 750, 2500, 7500, & 25000 nM). After 24 hours of incubation, 70 uL of the supernatant per well was transferred to a new 96 well plate. 8 μL of trichloroacetic acid (6.1 N) was mixed into each well and incubated at 50° C. for 30 min to hydrolyze N-formylkynurenine to kynurenine. The reaction mixture was then centrifuged for 10 min at 2500 RPM to remove sediments. 50 μL of the supernatant per well was transferred to another 96 well plate and mixed with 50 μL of 2% (w/v) p-dimethylaminobenzaldehyde in acetic acid. The yellow color derived from kynurenine was measured at 490 nm using a microplate reader. Percent inhibition of the test compounds was determined by measuring the decrease in kynurenine as compared to the control of DMSO vehicle, which was calculated by formula of (WC−WT)/WC, where WC is the mean absorbance of the control well minus blank well; WT is the mean absorbance of the test well minus the blank well. Data was analyzed by GraphPad Prism 5 and the IC50 values were obtained by non-linear regression.
as §1

T2 sequence (P48775 whole entry): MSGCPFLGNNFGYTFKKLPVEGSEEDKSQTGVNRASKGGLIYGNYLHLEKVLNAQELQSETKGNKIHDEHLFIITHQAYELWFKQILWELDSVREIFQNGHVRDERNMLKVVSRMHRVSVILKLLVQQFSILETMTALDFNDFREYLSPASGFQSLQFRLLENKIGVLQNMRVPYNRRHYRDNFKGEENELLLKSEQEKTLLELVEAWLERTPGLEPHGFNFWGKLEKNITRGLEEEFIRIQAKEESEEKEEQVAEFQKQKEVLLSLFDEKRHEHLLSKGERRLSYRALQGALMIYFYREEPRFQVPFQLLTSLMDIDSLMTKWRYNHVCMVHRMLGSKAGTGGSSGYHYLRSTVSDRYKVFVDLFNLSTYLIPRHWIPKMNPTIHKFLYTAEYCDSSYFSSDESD
T1 sequence (P14902 whole entry): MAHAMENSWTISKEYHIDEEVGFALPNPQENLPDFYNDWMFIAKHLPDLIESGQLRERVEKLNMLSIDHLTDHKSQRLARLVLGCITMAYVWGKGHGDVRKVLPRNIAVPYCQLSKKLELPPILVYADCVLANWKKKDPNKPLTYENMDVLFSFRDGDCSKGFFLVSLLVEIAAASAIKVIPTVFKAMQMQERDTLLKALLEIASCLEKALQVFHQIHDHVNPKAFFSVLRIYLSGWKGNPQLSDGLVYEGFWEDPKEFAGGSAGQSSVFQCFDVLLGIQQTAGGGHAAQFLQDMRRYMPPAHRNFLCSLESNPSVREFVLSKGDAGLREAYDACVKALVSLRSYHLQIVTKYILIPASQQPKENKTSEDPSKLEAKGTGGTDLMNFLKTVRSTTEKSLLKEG

For `CC1(C)[C@H]2CN(c3cc(C(F)(F)F)cn4cncc34)C[C@H]2CN1S(C)(=O)=O` (racemic) [Example 46, Racemic-8-((3aR,6aS)-4,4-dimethyl-5-(methylsulfonyl)hexahydropyrrolo[3,4-c]pyrrol-2(1H)-yl)-6-(trifluoromethyl)imidazo[1,5-a]pyridine], the figures for the IC50 in assay [1] and in assay [2] were more than 5 µM and 1000 to 5000 nM, respectively.
Take `CC(=O)N1C[C@@H]2CN(c3c(C(F)(F)F)ccc4cncn34)C[C@@H]2C1(C)C` (racemic) [Example 47, Racemic-1-((3aS,6aR)-1,1-dimethyl-5-(6-(trifluoromethyl)imidazo[1,5-a]pyridin-5-yl)hexahydropyrrolo[3,4-c]pyrrol-2(1H)-yl)ethanone]: the values for the 50% inhibitory concentration (IC50) in assay [1] and in assay [2] were more than 5 µM and more than 5000 nM, respectively.
Consider `CC1(C)[C@H]2CN(c3c(C(F)(F)F)ccc4cncn34)C[C@H]2CN1S(C)(=O)=O` (racemic) [Example 48, Racemic-5-((3aR,6aS)-4,4-dimethyl-5-(methylsulfonyl)hexahydropyrrolo[3,4-c]pyrrol-2(1H)-yl)-6-(trifluoromethyl)imidazo[1,5-a]pyridine], for which the IC50 in assay [1] is more than 5 µM; in assay [2], more than 5000 nM.
In the same order, the values of `CC1(C)[C@H]2CN(c3cc(C(F)(F)F)cc4cncn34)C[C@H]2CN1S(C)(=O)=O` (racemic) [Example 50, Racemic-5-((3aR,6aS)-4,4-dimethyl-5-(methylsulfonyl)hexahydropyrrolo[3,4-c]pyrrol-2(1H)-yl)-7-(trifluoromethyl)imidazo[1,5-a]pyridine] are more than 5 µM and more than 5000 nM.
For `CC(=O)N1C[C@@H]2CN(c3cc(C(F)(F)F)cc4cncn34)C[C@@H]2C1(C)C` (racemic) [Example 51, Racemic-1-((3aS,6aR)-1,1-dimethyl-5-(7-(trifluoromethyl)imidazo[1,5-a]pyridin-5-yl)hexahydropyrrolo[3,4-c]pyrrol-2(1H)-yl)ethanone], the values for the IC50 in assay [1] and in assay [2] were more than 5 µM and more than 5000 nM, respectively.
Turning to `CC1(C)[C@H]2CN(c3c(C4CC4)ccc4cncn34)C[C@H]2CN1S(C)(=O)=O` (racemic) [Example 55, Racemic-6-cyclopropyl-5-((3aR,6aS)-4,4-dimethyl-5-(methylsulfonyl)hexahydropyrrolo[3,4-c]pyrrol-2(1H)-yl)imidazo[1,5-a]pyridine], the 50% inhibitory concentration (IC50) in assay [1] is more than 5 µM; in assay [2] it was more than 5000 nM.
`CC(=O)N1C[C@@H]2CN(c3c(C4CC4)ccc4cncn34)C[C@@H]2C1(C)C` (racemic) [Example 56, Racemic-1-((3aS,6aR)-5-(6-cyclopropylimidazo[1,5-a]pyridin-5-yl)-1,1-dimethylhexahydropyrrolo[3,4-c]pyrrol-2(1H)-yl)ethanone]: the half-inhibitory concentration (IC50) in assay [1] was more than 5 µM; in assay [2], more than 5000 nM.
In the same order, the values of `O=C(N[C@@H]1[C@H]2C=C(c3cc(Cl)cc4[nH]ncc34)C[C@H]21)C1CC1` (racemic) [Example 183, Racemic-N-((1S,5R,6S)-3-(6-chloro-1H-indazol-4-yl)bicyclo[3.1.0]hex-2-en-6-yl)cyclopropanecarboxamide] are more than 5 µM and 1000 to 5000 nM.
Regarding `CS(=O)(=O)N[C@H]1C[C@@H]2C[C@@](O)(c3cc(Cl)cc4[nH]ncc34)C[C@@H]2C1` [Example 3, N-((2r,3aR,5r,6aS)-5-(6-chloro-1H-indazol-4-yl)-5-hydroxyoctahydropentalen-2-yl)methanesulfonamide], the IC50 in assay [1] was more than 5 µM; in assay [2] it was not above 500 nM.
The like results for `CC(=O)N1C[C@@H]2C[C@@](O)(c3cc(Cl)cn4cncc34)C[C@@H]2C1` [Example 6, 1-((3aR,5r,6aS)-5-(6-chloroimidazo[1,5-a]pyridin-8-yl)-5-hydroxyhexahydrocyclopenta[c]pyrrol-2(1H)-yl)ethanone] were, in that order, more than 5 µM and 500 to 1000 nM.
On to `CC(=O)N1C[C@@H]2C[C@@](O)(c3c(Cl)ccc4cncn34)C[C@@H]2C1` [Example 7, 1-((3aR,5r,6aS)-5-(6-chloroimidazo[1,5-a]pyridin-5-yl)-5-hydroxyhexahydrocyclopenta[c]pyrrol-2(1H)-yl)ethanone], for which the IC50 in assay [1] was more than 5 µM; in assay [2], more than 5000 nM.
As for `CC(=O)N1C[C@@H]2C[C@@](O)(c3cc(Cl)cc4cn[nH]c34)C[C@@H]2C1` [Example 8, 1-((3aR,5r,6aS)-5-(5-chloro-1H-indazol-7-yl)-5-hydroxyhexahydrocyclopenta[c]pyrrol-2(1H)-yl)ethanone], the IC50 in assay [1] was more than 5 µM; in assay [2], more than 5000 nM.
In the same order, the values of `CNS(=O)(=O)N[C@H]1[C@@H]2C[C@@](O)(c3cc(Cl)cc4[nH]ncc34)C[C@@H]21` [Example 9, N′-methyl-N-((1R,3r,5S,6r)-3-(6-chloro-1H-indazol-4-yl)-3-hydroxybicyclo[3.1.0]hexan-6-yl)sulfuric diamide] are not above 0.5 µM and not above 500 nM.
In the same order, the values of `CS(=O)(=O)N[C@H]1[C@@H]2C[C@@](O)(c3cc(C(F)(F)F)cc4[nH]ncc34)C[C@@H]21` [Example 10, N-((1R,3r,5S,6r)-3-hydroxy-3-(6-(trifluoromethyl)-1H-indazol-4-yl)bicyclo[3.1.0]hexan-6-yl)methanesulfonamide] are 1 to 5 µM and not above 500 nM.
As to `OC1(c2cc(Cl)cc3[nH]ncc23)CC1` [Example 11, 1-(6-chloro-1H-indazol-4-yl)cyclopropanol], the half-inhibitory concentration (IC50) was more than 5 µM in assay [1] and not above 500 nM in assay [2].
Take `O[C@@H]1C[C@@H]2C[C@@](O)(c3cc(Cl)cc4[nH]ncc34)C[C@@H]2C1` [Example 32, (2r,3aR,5s,6aS)-2-(6-chloro-1H-indazol-4-yl)octahydropentalene-2,5-diol]: the IC50 in assay [1] is 1 to 5 µM; in assay [2] it was not above 500 nM.
In the same order, the values of `O=S(=O)(c1ccccc1)N1C[C@@H]2C[C@@](O)(c3cc(Cl)cc4[nH]ncc34)C[C@@H]2C1` [Example 35, (3aR,5r,6aS)-5-(6-chloro-1H-indazol-4-yl)-2-(phenylsulfonyl)octahydrocyclopenta[c]pyrrol-5-ol] are more than 5 µM and not above 500 nM.
`O=C(c1ccccc1)N1C[C@@H]2C[C@@](O)(c3cc(Cl)cc4[nH]ncc34)C[C@@H]2C1` [Example 36, ((3aR,5r,6aS)-5-(6-chloro-1H-indazol-4-yl)-5-hydroxyhexahydrocyclopenta[c]pyrrol-2(1H)-yl)(phenyl)methanone]: the concentration for half-maximal inhibition (IC50) in assay [1] was more than 5 µM; in assay [2] it was not above 500 nM.
The like results for `O=C(C1CC1)N1C[C@@H]2C[C@@](O)(c3cc(Cl)cc4[nH]ncc34)C[C@@H]2C1` [Example 38, ((3aR,5r,6aS)-5-(6-chloro-1H-indazol-4-yl)-5-hydroxyhexahydrocyclopenta[c]pyrrol-2(1H)-yl)(cyclopropyl)methanone] were, in that order, more than 5 µM and not above 500 nM.
The like results for `N#Cc1ccc(S(=O)(=O)N2C[C@@H]3C[C@@](O)(c4cc(Cl)cc5[nH]ncc45)C[C@@H]3C2)cc1` [Example 39, 4-(((3aR,5r,6aS)-5-(6-chloro-1H-indazol-4-yl)-5-hydroxyhexahydrocyclopenta[c]pyrrol-2(1H)-yl)sulfonyl)benzonitrile] were, in that order, more than 5 µM and not above 500 nM.
